Assay [1] deals with T1, His10myc3N-Ste14p (His-Ste14p) (Saccharomyces cerevisiae, UniProt P32584).
T1 sequence (P32584 1-239): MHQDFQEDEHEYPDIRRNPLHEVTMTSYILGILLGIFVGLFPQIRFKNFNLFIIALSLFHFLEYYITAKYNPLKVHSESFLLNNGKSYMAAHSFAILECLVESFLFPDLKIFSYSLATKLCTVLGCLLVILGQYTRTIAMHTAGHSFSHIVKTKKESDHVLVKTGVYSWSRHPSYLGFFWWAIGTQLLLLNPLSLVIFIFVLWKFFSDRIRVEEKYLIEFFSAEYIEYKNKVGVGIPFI
The experiment in a line: In vitro methyltransferase vapor diffusion assay, substrate kinetics, His-Ste14p. The format is biochemical, S. cerevisiae. The following applies: for Vmax: crude yeast membranes expressing His-Ste14p; for Fold lower Km of para- vs meta-substituted benzophenone a-factor analogs: His-Ste14p, vs meta-substituted analogs (7a, 8a).

The target in assay [2] is T2, His10myc3N-hIcmt (His-hIcmt) (Homo sapiens, UniProt O60725). The experiment in a line: Inhibition of His-hIcmt methyltransferase activity. The format is biochemical.
T2 sequence (O60725 whole entry): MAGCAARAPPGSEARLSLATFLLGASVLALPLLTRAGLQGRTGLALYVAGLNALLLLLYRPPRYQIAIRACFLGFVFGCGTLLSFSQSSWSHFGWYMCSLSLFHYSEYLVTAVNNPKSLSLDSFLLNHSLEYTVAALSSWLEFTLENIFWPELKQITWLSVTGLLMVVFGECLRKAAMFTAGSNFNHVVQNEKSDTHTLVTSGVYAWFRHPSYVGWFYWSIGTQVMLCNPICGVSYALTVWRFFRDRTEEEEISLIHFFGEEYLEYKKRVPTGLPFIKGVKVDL
The next assay has as its system yeast Icmt. Conditions: cited from earlier work.
The test system of a further assay is human Icmt (hIcmt). The following applies: cited from earlier work.
The subject of another assay is His-Icmt. As to the kind of experiment: Competition of photolabeling by 8b with AFC, His-hIcmt. In kind it is binding, human. The following applies: 8b 200 μM, increasing AFC; data not shown.
Assay [3] addresses T1, His10myc3N-Ste14p (His-Ste14p). Conditions: read-out: Km(app); AFC positive control; ± S.D.; cited from earlier work.
Assay [4] concerns the target T2, His10myc3N-hIcmt (His-hIcmt). Conditions: AFC; ± S.D.; cited from earlier work.

Where a SMILES comes first, the peptide text is derived from it. The star is where a group is joined. X1 = C/C(=C\C*)CC/C=C(\C)COCc1ccc(C(=O)c2ccccc2)cc1; X3 = C/C(=C\C*)CC/C=C(\C)COCc1cccc(C(=O)c2ccccc2)c1; Biotin = O=C1N[C@H]2[C@H](CS[C@H]2CCCCC(=O)*)N1; X2 = C/C(=C\C*)COCc1cccc(C(=O)c2ccccc2)c1; X4 = C/C(=C\C*)COCc1ccc(C(=O)c2ccccc2)cc1; PEG4 = NCCOCCOCCOCCOCCC(=O)O

Broadly, the Vmax is the top rate of the reaction or transport when substrate is in excess. The Km is the concentration of substrate that gives half-maximal velocity.

As for `CC[C@H](C)[C@H](NC(=O)[C@H](Cc1ccc(O)cc1)NC(=O)CCOCCOCCOCCOCCNC(=O)CCCC[C@@H]1SC[C@@H]2NC(=O)N[C@@H]21)C(=O)N[C@H](C(=O)N[C@@H](CCCCN)C(=O)NCC(=O)N[C@H](C(=O)N[C@@H](Cc1ccccc1)C(=O)N[C@@H](Cc1c[nH]c2ccccc12)C(=O)N[C@@H](CC(=O)O)C(=O)N1CCC[C@H]1C(=O)N[C@@H](C)C(=O)N[C@@H](CSC/C=C(\C)COCc1cccc(C(=O)c2ccccc2)c1)C(=O)O)C(C)C)[C@@H](C)CC` [Compound 7a, Biotin-Peg4-YIIKGVFWDPAC(C5-meta-Bp)] ({Biotin-PEG4}-YIIKGVFWDPAC(X2)-OH), the “Vmax” value in assay [1] stood at 473 pmol/min/mg. Further, in assay [2], the “Inhibition of His-hIcmt (in words)” value is reported as “poor inhibitors of His-hIcmt”.

Regarding `CC[C@H](C)[C@H](NC(=O)[C@H](Cc1ccc(O)cc1)NC(=O)CCOCCOCCOCCOCCNC(=O)CCCC[C@@H]1SC[C@@H]2NC(=O)N[C@@H]21)C(=O)N[C@H](C(=O)N[C@@H](CCCCN)C(=O)NCC(=O)N[C@H](C(=O)N[C@@H](Cc1ccccc1)C(=O)N[C@@H](Cc1c[nH]c2ccccc12)C(=O)N[C@@H](CC(=O)O)C(=O)N1CCC[C@H]1C(=O)N[C@@H](C)C(=O)N[C@@H](CSC/C=C(\C)COCc1ccc(C(=O)c2ccccc2)cc1)C(=O)O)C(C)C)[C@@H](C)CC` [Compound 7b, Biotin-Peg4-YIIKGVFWDPAC(C5-para-Bp)] ({Biotin-PEG4}-YIIKGVFWDPAC(X4)-OH), the “Fold lower Km of para- vs meta-substituted benzophenone a-factor analogs” value in assay [1] is 2 – 3 times lower. In addition, the “Inhibition of His-hIcmt (in words)” value in assay [2] is on record as “poor inhibitors of His-hIcmt”.

`CC(=O)N[C@@H](CSC/C=C(\C)CC/C=C(\C)CC/C=C(\C)CCC=C(C)C)C(=O)O` [AGGC, N-acetyl-S-geranylgeranyl-L-cysteine]: in the assay with yeast Icmt, the “Substrate of yeast Icmt (in words)” value was “substrates for both human and yeast Icmts”. Also, the “Substrate of human Icmt (in words)” value with human Icmt (hIcmt) is “substrates for both human and yeast Icmts”.

For `CC[C@H](C)[C@H](NC(=O)[C@H](Cc1ccc(O)cc1)NC(=O)CCOCCOCCOCCOCCNC(=O)CCCC[C@@H]1SC[C@@H]2NC(=O)N[C@@H]21)C(=O)N[C@H](C(=O)N[C@@H](CCCCN)C(=O)NCC(=O)N[C@H](C(=O)N[C@@H](Cc1ccccc1)C(=O)N[C@@H](Cc1c[nH]c2ccccc12)C(=O)N[C@@H](CC(=O)O)C(=O)N1CCC[C@H]1C(=O)N[C@@H](C)C(=O)N[C@@H](CSC/C=C(\C)CC/C=C(\C)COCc1ccc(C(=O)c2ccccc2)cc1)C(=O)O)C(C)C)[C@@H](C)CC` [Compound 8b, Biotin-Peg4-YIIKGVFWDPAC(C10-para-Bp)] ({Biotin-PEG4}-YIIKGVFWDPAC(X1)-OH), the “Fold lower Km of para- vs meta-substituted benzophenone a-factor analogs” value in assay [1] is 2 – 3 times lower. Moreover, the “Inhibition of His-hIcmt (in words)” value in assay [2] was “relatively potent”. In the assay on His-Icmt, the “Mode of inhibition (in words)” value was “competitive inhibitor” and the “Photolabeling by 8b in presence of AFC (in words)” value is on record as “decreased with increasing AFC concentration”.

On to `CC(=O)N[C@@H](CSC/C=C(\C)CC/C=C(\C)CCC=C(C)C)C(=O)O` [Compound 1, N-acetyl-S-farnesyl-L-cysteine], for which, in assay [1], the “Vmax” value was 869 pmol/min/mg. Further, the Km is 15.9 ± 0.9 µM in assay [3] and 10.3 ± 0.5 µM in assay [4]. Also, the “Substrate of yeast Icmt (in words)” value in the assay on yeast Icmt was “substrates for both human and yeast Icmts”. Besides, the “Substrate of human Icmt (in words)” value in the assay on human Icmt (hIcmt) was “substrates for both human and yeast Icmts”.

Regarding `CC[C@H](C)[C@H](NC(=O)[C@H](Cc1ccc(O)cc1)NC(=O)CCOCCOCCOCCOCCNC(=O)CCCC[C@@H]1SC[C@@H]2NC(=O)N[C@@H]21)C(=O)N[C@H](C(=O)N[C@@H](CCCCN)C(=O)NCC(=O)N[C@H](C(=O)N[C@@H](Cc1ccccc1)C(=O)N[C@@H](Cc1c[nH]c2ccccc12)C(=O)N[C@@H](CC(=O)O)C(=O)N1CCC[C@H]1C(=O)N[C@@H](C)C(=O)N[C@@H](CSC/C=C(\C)CC/C=C(\C)COCc1cccc(C(=O)c2ccccc2)c1)C(=O)O)C(C)C)[C@@H](C)CC` [Compound 8a, Biotin-Peg 4-YIIKGVFWDPAC(C10-meta-Bp)] ({Biotin-PEG4}-YIIKGVFWDPAC(X3)-OH), the “Vmax” value in assay [1] is 762 pmol/min/mg. Further, in assay [2], the “Inhibition of His-hIcmt (in words)” value is on record as “relatively potent”.

As for `CC(C)=CCCC(C)=CCCC(C)=CCSCCC(=O)O` [FTP, farnesyl thiopropionic acid], in the assay with yeast Icmt, the “Substrate of yeast Icmt (in words)” value was “substrates for both human and yeast Icmts”. In the assay on human Icmt (hIcmt), the “Substrate of human Icmt (in words)” value is “substrates for both human and yeast Icmts”.
